In US5298619A, “1,4-dihydropyridine compounds with PAF-antagonistic activity” (Alter, S.A., priority 1991, dated 1994):

System: bronchoconstriction
Experiment: not given
Details: doses times lower than histamine; cited from earlier work

| Compound | doses inducing bronchoconstriction, relative to histamine [times lower] |
| --- | --- |
| CCCCCCCCCCCCCCCCOCC(COP(=O)([O-])OCC[N+](C)(C)C)OC(C)=O (centres unmarked) [PAF-"acether", 1-O-hexadecyl/octodecyl-2-acetyl-sn-glycero-3-phosphocoline] | 100 |

System: aggregation induced by 1-PAF in rabbit platelets
Experiment: Effect on the aggregation induced by 1-PAF in rabbit platelets (washed platelets)
Type: cell-based, rabbit (male, albino, New Zealand)
Details: Oryctolagus cuniculus, Platelet, 37° C., 5 min preincubation, 1-PAF=1.92 nM, compounds 10 to 0.1 micM, mean of three experiments in duplicate
Method: STUDIES WITH WASHED PLATELETS: Aggregation
The suspensions of washed platelets were obtained from rabbit's blood (male, albino, New Zealand), anticoagulated with a solution of citric acid citrate/sodium dextrose in the ratio 1:6 (v:v).
The platelet rich plasma (PRP) was obtained by centrifuging blood samples at 100×g for 10 minutes and the platelets by centrifuging the PRP at 1,800×g for 15 minutes at 4° C. The pellet obtained in this way was washed twice with Tyrode tampon containing citric acid, PGE and aspirase, pH 6.5. The platelets so-washed were finally resuspended in Hepes-Tyrode tampon, pH 7.35 supplemented with bovine seric albumin at 0.35%; Ca++ 2 mM.
The final platelet concentration was adjusted to 300,000 platelets/mic-1. The aggregation was measured turbidimetrically using a lumiaggregometre (Chrono-Log.Co; Haventon, Pa., USA) at 37° C. under stirring at 1,100 r.p.m. The study was made in aliquots of preincubated PRP, with the compounds under study, for 5 minutes. The concentration of the antagonists was, in all cases, between 10 micM and 0.1 micM. The aggregation was induced by adding L-PAF diluted in 5 micl of Hepes/albumin tampon, the final concentration being 1.9×0,000000001. The IC50 for each compound was evaluated graphically from the dose-response curves.
The data reflected is the mean of three experiments performed in duplicate. Concentration of 1-PAF=1.92 nM.
The concentrations of compounds, in all cases, were between 10 and 0.1 micM .

| Compound | IC50 [nM] |
| --- | --- |
| COC(=O)C1=C(C)NC(C)=C(C(=O)OCCCSc2ccc(Cl)cc2)C1C (centres unmarked) [Example 1, 3-(4-chlorophenylthio) propyl 5-methoxycarbonyl-2,4,6-trimethyl-1,4-dihydropyridine-3-carboxylate] | 340 |
| COC(=O)C1=C(C)NC(C)=C(C(=O)OCCS(=O)(=O)c2ccc(C)cc2)C1C (centres unmarked) [Example 2, 2-(4-methylphenylsulphonyl) ethyl 5-methoxycarbonyl-2,4,6-trimethyl-1,4-dihydropyridine-3-carboxylate] | 1100 |
| COC(=O)C1=C(C)NC(C)=C(C(=O)OCCCOc2ccc(-c3ccccc3)cc2)C1C (centres unmarked) [Example 3, 3-(4-phenylphenoxy) propyl 5-methoxycarbonyl-2,4,6-trimethyl-1,4-dihydropyridine-3-carboxylate] | 240 |
| COC(=O)C1=C(C)NC(C)=C(C(=O)OCCCSc2ccc(NC(C)=O)cc2)C1C (centres unmarked) [Example 30] | 3100 |
| COC(=O)C1=C(C)NC(C)=C(C(=O)OCCCOc2ccc(Cl)c(Cl)c2)C1C (centres unmarked) [Example 41] | 2700 |
| COC(=O)C1=C(C)NC(C)=C(C(=O)OCCCOc2ccc(C)cc2)C1C (centres unmarked) [Example 48] | 4000 |
| COC(=O)C1=C(C)NC(C)=C(C(=O)OCCCS(=O)(=O)c2ccc(C)cc2)C1C (centres unmarked) [Example 52] | 2700 |
| COC(=O)C1=C(C)NC(C)=C(C(=O)OCCCOc2ccc(OC)cc2)C1C (centres unmarked) [Example 61] | 2000 |
| CCOC(=O)C1=C(C)NC(C)=C(C(=O)OCCCOc2ccc(-c3ccccc3)cc2)C1C (centres unmarked) [Example 66] | 2400 |
| CCOC(=O)C1=C(C)NC(C)=C(C(=O)OCCS(=O)(=O)c2ccccc2)C1C (centres unmarked) [Example 74] | 2800 |
| CCOC(=O)C1=C(C)NC(C)=C(C(=O)OCCCSc2ccc(Cl)cc2)C1C (centres unmarked) [Example 82] | 2800 |
| CCOC(=O)C1=C(C)NC(C)=C(C(=O)OCCCOc2cccc(N(C)C)c2)C1C (centres unmarked) [Example 133] | 2400 |
| COC(=O)C1=C(C)NC(C)=C(C(=O)OCCOc2cccc(N(C)C)c2)C1C (centres unmarked) [Example 135] | 2800 |
| CCC1C(C(=O)OC)=C(C)NC(C)=C1C(=O)OCCCSc1ccc(Cl)cc1 (centres unmarked) [Example 164, 3-(4-chlorophenylthio) propyl 2,6-dimethyl-4-ethyl-5-methoxycarbonyl-1,4-dihydropyridine-3-carboxylate] | 320 |
| CCOC(=O)C1=C(C)NC(C)=C(C(=O)OCCCSc2ccc(Cl)cc2)C1CC (centres unmarked) [Example 165, 3-(4-chlorophenylthio) propyl 2,6-dimethyl-4-ethyl-5-ethoxycarbonyl-1,4-dihydropyridine-3-carboxylate] | 2500 |
| CCOC(=O)C1=C(C)NC(C)=C(C(=O)OCCCSc2ccccc2)C1C (centres unmarked) [Example 166] | 2600 |
| COC(=O)C1=C(C)NC(C)=C(C(=O)OCCCSc2ccc3ccccc3c2)C1C (centres unmarked) [Example 167] | 400 |

Next, values leading:

| IC50 [nM] | Compound |
| --- | --- |
| 850 | COC(=O)C1=C(C)NC(C)=C(C(=O)OCCCSc2ccc(C)cc2)C1C (centres unmarked) [Example 4, 3-(4-methylphenylthio) propyl 5-methoxycarbonyl-2,4,6-trimethyl-1,4-dihydropyridine-3-carboxylate] |
| 1300 | COC(=O)C1=C(C)NC(C)=C(C(=O)OCCS(=O)(=O)c2ccccc2)C1C (centres unmarked) [Example 5, 2-(phenylsulphonyl) ethyl 5-methoxycarbonyl-2,4,6-trimethyl-1,4-dihydropyridine-3-carboxylate] |
| 3000 | COC(=O)C1=C(C)NC(C)=C(C(=O)OCCCOc2ccccc2)C1C (centres unmarked) [Example 6] |
| 2300 | COC(=O)C1=C(C)NC(C)=C(C(=O)OCCCS(=O)(=O)c2ccccc2)C1C (centres unmarked) [Example 13] |
| 150 | COC(=O)C1=C(C)NC(C)=C(C(=O)OCCCSc2ccc(Cl)c(Cl)c2)C1C (centres unmarked) [Example 45] |
| 1400 | CCOC(=O)C1=C(C)NC(C)=C(C(=O)OCCCSc2ccc(Cl)c(Cl)c2)C1C (centres unmarked) [Example 46] |
| 10000 | COC(=O)C1=C(C)NC(C)=C(C(=O)OCCOc2ccc(OC)cc2)C1C (centres unmarked) [Example 62] |
| 2800 | COC(=O)C1=C(C)NC(C)=C(C(=O)OCCOc2ccc(-c3ccccc3)cc2)C1C (centres unmarked) [Example 64] |
| 2800 | COC(=O)C1=C(C)NC(C)=C(C(=O)OCCCSc2ccc([N+](=O)[O-])cc2)C1C (centres unmarked) [Example 76] |
| 4300 | COC(=O)C1=C(C)NC(C)=C(C(=O)OCCOc2ccc([N+](=O)[O-])cc2)C1C (centres unmarked) [Example 110] |
| 3000 | COC(=O)C1=C(C)NC(C)=C(C(=O)OCCOc2cccc3ccccc23)C1C (centres unmarked) [Example 113] |
| 10000 | COC(=O)C1=C(C)NC(C)=C(C(=O)OCCOc2ccc(Cl)cc2)C1C (centres unmarked) [Example 131] |
| 700 | COC(=O)C1=C(C)NC(C)=C(C(=O)OCCCOc2ccc(Oc3ccccc3)cc2)C1C (centres unmarked) [Example 139] |
| 2000 | COC(=O)C1=C(C)NC(C)=C(C(=O)OCCOc2ccc(Oc3ccccc3)cc2)C1C (centres unmarked) [Example 140] |
| 3000 | CCOC(=O)C1=C(C)NC(C)=C(C(=O)OCCCOc2ccc3ccccc3c2)C1C (centres unmarked) [Example 152, 3-(2-naphthyloxy) propyl 5-ethoxycarbonyl-2,4,6-trimethyl-1,4-dihydropyridine-3-carboxylate] |
| 1100 | COC(=O)C1=C(C)NC(C)=C(C(=O)OCCCOc2cccc3ccccc23)C1C (centres unmarked) [Example 154] |
| 410 | COC(=O)C1=C(C)NC(C)=C(C(=O)OCCCSc2ccccc2)C1C (centres unmarked) [Example 163, 3-(phenylthio) propyl 5-methoxycarbonyl-2,4,6-trimethyl-1,4-dihydropyridine-3-carboxylate] |
| 190 | CCC1C(C(=O)OC)=C(C)NC(C)=C1C(=O)OCCCSc1ccc(C)cc1 (centres unmarked) [Example 172] |

System: PAF
Experiment: not given
Details: background statement; cited from earlier work

| Compound | PAF antagonistic properties |
| --- | --- |
| COc1ccc([C@@H]2Sc3ccccc3N(CCN(C)C)C(=O)[C@@H]2OC(C)=O)cc1 [Diltiazem] | present PAF antagonistic properties |
| COc1ccc(CCN(C)CCCC(C#N)(c2cc(OC)c(OC)c(OC)c2)C(C)C)cc1OC (centres unmarked) [Gallopamil] | present PAF antagonistic properties |
| COC(=O)C1=C(C)NC(C)=C(C(=O)OC)C1c1ccccc1[N+](=O)[O-] [Nifedipina] | only show a very weak activity |

Same assay, conditions: fold higher than those inhibiting calcium flow in other cells; cited from earlier work

| Compound | concentrations needed to obtain an effect, relative to those inhibiting calcium flow in other cells |
| --- | --- |
| COC(=O)C1=C(C)NC(C)=C(C(=O)OC)C1c1ccccc1[N+](=O)[O-] [Nifedipina] | 1,000,000 |

Same assay, conditions: times greater than the specific antagonists of the PAF-"acether"; cited from earlier work

| Compound | concentrations needed to obtain an effect, relative to the specific antagonists of the PAF-"acether" |
| --- | --- |
| COC(=O)C1=C(C)NC(C)=C(C(=O)OC)C1c1ccccc1[N+](=O)[O-] [Nifedipina] | ≥ 1,000 times |
